{
  "source": "patent US20240245677A1",
  "about": "“SELECTED COMPOUNDS FOR TARGETED DEGRADATION OF BRD9” (C4 THERAPEUTICS, INC., priority 2021, published 2024)",
  "key": {"[1]": {"system": "cryopreserved hepatocytes from Sprague-Dawley rats", "test": "Rat Hepatocyte Stability Assay", "assay_type": "in vitro ADME", "description": "(§1) The metabolic stability of Compound 1 was evaluated using cryopreserved hepatocytes from mice, rats, dogs, cynomolgus monkeys, and humans.\n(§2) 50 μL of 1 mM intermediate solutions for each test compound was prepared by adding 5 μL of 10 mM stock solution to 45 μL of a 1:1 mixture of water and acetonitrile. A 2 μM working stocks for each test compound were prepared in incubation media, InvitroGRO™ KHB (Bio IVT, Westbury, NY, USA), by adding 2 μL of 1 mM intermediate stock to 998 μL of incubation media.\n(§3) To thaw the hepatocytes, InvitroGRO™ HT thawing medium (BioIVT, Westbury, NY, USA) was prewarmed to 37° C., and 48 mL of warmed thawing medium was transferred to a sterile 50 mL conical tube. The hepatocyte vial was removed from the liquid nitrogen Dewar, and gently thawed in a water bath at 37° C. for 1-2 minutes, then the contents of the vial were emptied into a conical tube with prewarmed InvitroGRO HT medium. 1 mL of prewarmed InvitroGRO HT medium was added to each emptied hepatocyte vial to resuspend any remaining cells, and the contents were pipetted into the hepatocyte suspension. The tube containing the hepatocyte suspension was centrifuged at 50*g for 5 minutes. The supernatant was removed carefully, and the remaining pellet was resuspended by adding 1 mL of incubation media, InvitroGRO KHB, and gently shaking until there were no clumps.\n(§4) Cell viability was determined using the trypan blue method. 25 μL of hepatocyte cell suspension was added to a trypan blue (TB) solution (containing 775 μL InvitroGRO KHB and 200 μL of Trypan Blue). Cell count was taken using a hemacytometer.\n(§5) For mouse hepatocytes, 200 μL of hepatocytes (0.8×10^6 cells/mL) were added to the wells of a 48 well plate (Catalog No. 92048, TPP Techno Plastic Products AG, Trasadingen, Switzerland) and pre-incubated for 30 minutes at 37° C. For rat, dog, monkey, […], 200 μL of hepatocytes (2×10^6 cells/mL) were added to the wells of a 48 well plate (Catalog No. 92048, TPP Techno Plastic Products AG, Trasadingen, Switzerland) and pre-incubated for 30 minutes at 37° C.\n(§6) For all species of hepatocytes, once the pre-incubation period was complete, 200 μL of 2 μM working stock of test compound was added to the wells of the plate, and the plate was vortexed on a Vibramax™ 100 (P/N 544-21200-00, Heidolph Instruments GmbH & Co. KG, Schwabach, Germany) at 500 rpm in a 37° C. CO2 incubator (Model No. 51026280, ThermoFisher Scientific, Waltham, MA, USA). At each time point of 0, 15, 30, 60, 90, and 120 minutes, 50 μL of incubation mixture was precipitated with 200 μL of acetonitrile containing internal standard.\n(§7) At the end of the experiment, the samples were centrifuged at 4000 rpm for 10 minutes. […]"}, "[2]": {"test": "Rat Hepatocyte Stability Assay", "assay_type": "in vitro ADME", "conditions": "Sprague-Dawley, cryopreserved hepatocytes", "description": "as §1, §2, §3, §4, §5, §6, §7"}},
  "data": [
    {"smiles": "COc1cc(-c2cn(C)c(=O)c(C)c2C)cc(OC)c1CN1CC[C@H](N2CCN(c3ccc(N[C@H]4CCC(=O)NC4=O)cc3F)CC2)C(F)(F)C1", "note": "[Compound 1, (S)-3-((4-(4-((S)-1-(2,6-dimethoxy-4-(1,4,5-trimethyl-6-oxo-1,6-dihydropyridin-3-yl)benzyl)-3,3-difluoropiperidin-4-yl)piperazin-1-yl)-3-fluorophenyl)amino)-piperidine-2,6-dione]", "values": [
      {"measurement": "CLh int in vivo", "setting": "[1]", "result": 17.76, "unit": "mL/min/Kg body wt."},
      {"measurement": "CLhb scaled well stirred", "setting": "[1]", "result": 14.2, "unit": "mL/min/kg body wt."},
      {"measurement": "half-life at 1 µM", "setting": "[2]", "result": "> 2", "unit": "h"},
      {"measurement": "hepatocyte CLint at 1 µM", "setting": "[2]; read-out: CL int cells", "result": 3.7, "unit": "µL/min/1e6 cells"}
    ]}
  ]
}
